The source of these data is US20230313199A1, “TARGET FOR MODULATING BODY MASS” (Massachusetts Institute of Technology, priority 2020, published 2023).

Molecules are shown by their SMILES.

One test addresses T1, NTD of human MFSD7C (Homo sapiens, UniProt Q9UPI3).
T1 construct: Plasmid harboring GST-His-tag-SUMO-NTD (amino acids 1-84); GST-His-tag-SUMO (N, cleaved yes); made in house; host or cells: Escherichia coli Lemo21(DE3)
T1 sequence (Q9UPI3 1-84): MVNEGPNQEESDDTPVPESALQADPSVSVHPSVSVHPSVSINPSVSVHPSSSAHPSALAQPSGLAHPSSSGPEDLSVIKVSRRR
Briefly: Heme absorbance-shift assay with wild-type NTD. In kind it is binding. The procedure:
(§1) Heme absorbance-shift assay. Hemin was prepared fresh before each experiment. Approximately 20 mg of hemin (Sigma) was placed in a fresh tube and resuspended with 1 mL of DMSO. The hemin solution was slowly diluted while mixing with 1 mL of 2× buffer C (25 mM HEPES-NaOH pH 7.8, 10 mM NaCl), and aggregated hemin was eliminated by passing the solution through a 0.2 μm filter unit. Hemin concentration was determined by diluting the filtered solution with 1× buffer C 1:100 and using the extinction coefficient of 58,400 cm^−1M^−1 at 385 nm. For each reaction, the 200 μL reaction mix containing 100 μM hemin, 25 mM HEPES-NaOH pH 7.8, 10 mM NaCl, and various concentrations of wild-type or mutant NTD protein, was placed in a transparent 96-well plate. Absorbance intensity was measured using Tecan Infinite M200 Pro microplate reader, between 330 and 550 nm using 5 nm steps. The absorbance intensity for dissolved hemin was subtracted from absorbance intensity from hemin incubated with various concentrations of protein.

Another test relates to mutant HP motif peptide. Briefly: Heme absorbance-shift assay with mutant HP motif peptide. In kind it is binding. The note with it: both histidine residues in the HP motif peptide mutated to alanine. The procedure: Peptide synthesis. Wild-type HP motif peptide (HPSALAQPSGLAHP) and mutant HP motif peptide (APSALAQPSGLAAP) were synthesized using solid-phase synthesis and purified using HPLC by the Biopolymers & Proteomics Core at the Koch Institute for Integrative Cancer Research.
as §1

The test system of test [1] is MCF7 cells. Nature of the test: Oxygen consumption rate, parental MCF7 cells. Type of test: cell-based, human. The note with it: 40 μM heme for 1 hour.
The next test concerns 293T cells. Nature of the test: Oxygen consumption rate, parental 293T cells. The note with it: 40 μM heme for 1 hour. In kind it is cell-based, human.
Test [2] concerns MCF7 cells. Briefly: Thermogenesis by FPT, parental MCF7 cells. The settings on record: heme for 1 hour. Type of test: cell-based, human. The procedure: Shown are representative graphs of OCR output of the indicated cells with or without hematin treatment and their responses to oligomycin, FCCP, and rotenone plus antimycin A (FIG. 12B), basal OCR (FIG. 12C), maximal OCR (FIG. 12D), and ECAR (FIG. 12E) from two separate experiments with n=10 biologically independent samples. Data are presented as mean value±standard deviation. Each dot represents one technical replicate. […] Parental and knockout cells were incubated with no probe or FPT for 6 hours, and then washed twice. A portion of FPT-treated cells was treated with heme for 1 hour. FPT fluorescence intensity was quantified by flow cytometry. Shown are representative plots from two separate experiments. P-values were calculated using two-way ANOVA (***p<0.001).
In the second approach, we used fluorescent polymeric thermometer (FPT), which we synthesized in-house (see above). Parental and knockout THP-1 cells were mixed together, washed and incubated with FPT in 5% w/v glucose solution for 6 hrs. The cells were washed with PBS twice and reseeded in dishes with glass bottom that was coated with poly-lysine. The cells were imaged under Confocal Laser-Scanning Microscopy at 37° C. […] Then the fluorescence intensities were determined by a flow cytometer.

The test system of the next test is 4B8^FL cells. Nature of the test: FPT intensity in 4B8 cells complemented with full length MFSD7C. Type of test: cell-based, human. The settings on record: 40 μM heme 1 hour. The procedure: FIGS. 4A-4H show NTD of MFSD7C mediates heme effect on mitochondrial respiration. FIGS. 4A-4C show comparison of basal OCR (FIG. 4A), maximal OCR (FIG. 4B) and ECAR (FIG. 4C) of THP-1, 4B8, and 4B8^FL and 4B8^ΔN cells treated with vehicle or heme for 1 hour (n=18 separate experiments). […] Cells were incubated with FPT for 6 hrs, washed and reseeded in poly-lysine coated glass bottom dishes. After cells attached to the glass, medium containing 40 μM heme was added. Cells in the same field were imaged immediately and again 1 hour later. Relative FPT fluorescent intensities, normalized to THP-1, from three experiments are shown. (n=3 independent experiments). […] THP-1 cells were co-cultured with 4B8, 4B8^FL, or 4B8^ΔN in FPT solution for 6 hrs, washed and reseeded in poly-lysine coated glass bottom dishes. […] THP-1, 4B8, 4B8^FL and 4B8^ΔN cells were treated with vehicle or heme for 1 hour and MMP was measured by using JC-10 Mitochondrial Membrane Potential Assay Kit followed by flow cytometry. […] Shown are representative Western blotting data (FIG. 4G) and quantification of band intensities from n=3 independent experiments (FIG. 4H). P-values were calculated using two-way ANOVA (*p<0.05, **p<0.01, ***p<0.005). […]
In the second approach, we used fluorescent polymeric thermometer (FPT), which we synthesized in-house (see above). […] Then the fluorescence intensities were determined by a flow cytometer.

A further test has as its system SERCA2b. Briefly: SERCA2b protein level by Western blotting, 4B8^FL cells. Type of test: cell-based, human. The note with it: 40 μM heme for one hour, reduction by MFSD7C^FL expression. The procedure:
FIGS. 5A-5F show MFSD7C and heme regulate thermogenesis through SERCA2b in THP-1 cells. […] 30 hours later, MG132 was added into half of the cells and the other half was not treated. Another 35 hours later, some cells were treated with 40 μM heme for 1 hour before lysis. Cell lysates were immunoprecipitated with anti-FLAG antibody, and eluted, followed by anti-HA immunoprecipitation and elution. Total cell lysate and elute were subjected to Western blotting and probed with anti-SERCA2b or anti-MFSD7C antibodies. Shown are representative data from one of three experiments. […] 24 hrs later, cells were either not treated or treated with 10 μM MG132 for either 6 or 12 hours. The cells were lysed and subjected to FLAG pull-down and blotted with anti-MFSD7C, anti-SERCA2b and anti-ubiquitin antibodies. Shown are representative data from one of three experiments. […] Parental THP-1 cells were either not treated or treated with heme before lysis. Shown are representative data from one of four experiments. […] Shown are representative data from one of two experiments. […] Cells were washed and treated with 40 μM heme for one hour before flow cytometry. Representative FPT histograms from one of three experiments are shown. […] Shown are representative FPT histograms from one of three experiments.
Endogenous protein extraction. […]

Turning to `C=CC1=C(C)c2cc3[n-]c(cc4[n-]c(cc5nc(cc1n2)C(C)=C5C=C)c(C)c4CCC(=O)O)c(CCC(=O)O)c3C.[Fe+2]` [heme], the “absorbance shift of heme (Soret band, Q band)” value on NTD of human MFSD7C (100 μM heme, various concentrations of wild-type NTD) is “concentration-dependent increase in the intensities of the Soret band (415 nm) and the Q band (535 nm)”. At NTD of human MFSD7C (415 nm absorbance versus NTD concentration), the “heme binding sites per NTD from rate of increase of Soret band intensities” value is reported as “two or more heme binding sites per NTD”. Besides, the “absorbance shift of heme” value in the test with mutant HP motif peptide is “abolished”. The OCR result in the test on MCF7 cells [1] and in the test with 293T cells was “significantly stimulated” throughout. Besides, the FTP intensity result in the test on MCF7 cells [2] was “significantly stimulated”. Moreover, the FPT intensity result in the test on 4B8^FL cells was “increased”. For the same compound, the SERCA2b level entry in the test with SERCA2b was “restored”.
